The source of these data is patent US10045983B2, “Heteroaryl pyridone and aza-pyrodine compounds” (Genentech, Inc., priority 2011, dated 2018).

This assay in a line: CD69 Whole Blood Assay (CD69 Hu Blood FACS). Format: cell-based, human. The conditions noted are these: Lymphocyte; human whole blood, anti-IgM activated B lymphocytes, FACS; IC70; Table 2 (unit inferred); read-out: CD69 Hu Blood FACS (IC70). An outline of the steps:
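Compounds tested for blocking B-cell CD69 induction by flow cytometry in human whole blood, with activation via anti-human IgM goat F(ab′)2 crosslinking of surface IgM.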

The structures appear in SMILES notation.

Turning to `Cn1cc(-c2ccnc(N3CCn4c(cc5c4CC(C)(C)C5)C3=O)c2CO)cc(Nc2cnc(C#N)cn2)c1=O` [Example 298, 5-[[5-[2-(7,7-dimethyl-4-oxo-1,2,6,8-tetrahydrocyclopenta[3,4]pyrrolo[3,5-b]pyrazin-3-yl)-3-(hydroxymethyl)-4-pyridyl]-1-methyl-2-oxo-3-pyridyl]amino]pyrazine-2-carbonitrile], the 70% effect concentration (IC70) worked out at 0.869 µM.
In the case of `Cn1cc(-c2ccnc(N3CCn4c(cc5c4CC(C)(C)C5)C3=O)c2CO)cc(Nc2cc(-c3ccccc3)on2)c1=O` [Example 299, 3-[3-(hydroxymethyl)-4-[1-methyl-6-oxo-5-[(5-phenylisoxazol-3-yl)amino]-3-pyridyl]-2-pyridyl]-7,7-dimethyl-1,2,6,8-tetrahydrocyclopenta[3,4]pyrrolo[3,5-b]pyrazin-4-one], the IC70 came to 2.1 µM.
Regarding `COC[C@@H](C)N1CCn2nc(Nc3cc(-c4ccnc(N5CCn6c(cc7c6CC(C)(C)C7)C5=O)c4CO)cn(C)c3=O)cc2C1` [Example 300, (R)-2-(3′-(hydroxymethyl)-5-((5-(1-methoxypropan-2-yl)-4,5,6,7-tetrahydropyrazolo[1,5-a]pyrazin-2-yl)amino)-1-methyl-6-oxo-1,6-dihydro-[3,4′-bipyridin]-2′-yl)-7,7-dimethyl-2,3,4,6,7,8-hexahydro-1H-cyclopenta[4,5]pyrrolo[1,2-a]pyrazin-1-one], the IC70 is 0.024 µM.
Next, `Cn1cc(-c2ccnc(N3CCn4c(cc5c4CC(C)(C)C5)C3=O)c2CO)cc(Nc2ccc(C(F)(F)F)nn2)c1=O` [Example 301, 3-[3-(hydroxymethyl)-4-[1-methyl-6-oxo-5-[[6-(trifluoromethyl)pyridazin-3-yl]amino]-3-pyridyl]-2-pyridyl]-7,7-dimethyl-1,2,6,8-tetrahydrocyclopenta[3,4]pyrrolo[3,5-b]pyrazin-4-one]: 1.3 µM; `CN(Cc1cc(Nc2cc(-c3ccnc(N4CCn5c(cc6c5CC(C)(C)C6)C4=O)c3CO)cn(C)c2=O)nn1C)C1COC1` [Example 302, 3-[3-(hydroxymethyl)-4-[1-methyl-5-[[1-methyl-5-[[methyl(oxetan-3-yl)amino]methyl]pyrazol-3-yl]amino]-6-oxo-3-pyridyl]-2-pyridyl]-7,7-dimethyl-1,2,6,8-tetrahydrocyclopenta[3,4]pyrrolo[3,5-b]pyrazin-4-one]: 0.0228 µM.
For `COCCN1CCn2nc(Nc3cc(-c4ccnc(-n5ncc6c7c(sc6c5=O)CC(C)(C)C7)c4CO)cn(C)c3=O)cc2C1` [Example 304, 3-[3-(hydroxymethyl)-4-[5-[[5-(2-methoxyethyl)-6,7-dihydro-4H-pyrazolo[1,5-a]pyrazin-2-yl]amino]-1-methyl-6-oxo-3-pyridyl]-2-pyridyl]-7,7-dimethyl-6,8-dihydrocyclopenta[3,4]thieno[1,3-d]pyridazin-4-one], the IC70 came to 0.04 µM.
The result for `COCCN1CCn2nc(Nc3cc(-c4ccnc(N5CCn6c(cc7c6CC(C)(C)C7)C5=O)c4CO)nn(C)c3=O)cc2C1` [Example 305, 3-[3-(hydroxymethyl)-4-[5-[[5-(2-methoxyethyl)-6,7-dihydro-4H-pyrazolo[1,5-a]pyrazin-2-yl]amino]-1-methyl-6-oxo-pyridazin-3-yl]-2-pyridyl]-7,7-dimethyl-1,2,6,8-tetrahydrocyclopenta[3,4]pyrrolo[3,5-b]pyrazin-4-one] reads 0.0832 µM; that for `COc1ccc(Nc2cc(-c3ccnc(N4CCn5c(cc6c5CC(C)(C)C6)C4=O)c3CO)cn(C)c2=O)nn1` [Example 306, 3-[3-(hydroxymethyl)-4-[5-[(6-methoxypyridazin-3-yl)amino]-1-methyl-6-oxo-3-pyridyl]-2-pyridyl]-7,7-dimethyl-1,2,6,8-tetrahydrocyclopenta[3,4]pyrrolo[3,5-b]pyrazin-4-one], 0.602 µM.

As usually defined, the IC70 is the concentration needed for an effect of 70%.
